We go through seven compounds from patent publication US20220324835A1 (Nurix Therapeutics, Inc., priority 2018, published 2022).

Test [1] concerns the target T1, Cbl-b (Homo sapiens, UniProt Q13191). In words: Cbl-b inhibition assay (Cbl-b activity assay, FRET, Biological Example 1; 100 mM NaCl, 60 nM Src kinase). Format: biochemical. The conditions noted are these: upper bound stated in text lists; read-out: IC50 values in the Cbl-b inhibition assay of Biological Example 1. A digest of the protocol: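 Binding-based Cbl-b activity assay. Src-phosphorylated, N-terminally biotin-Avi-tagged Cbl-b recruits labelled UbcH5B-Ub, and proximity to streptavidin-terbium yields FRET.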

Test [2] concerns T-cell. The experiment in a line: IL-2 secretion from T-cells co-stimulated with anti-CD3 and anti-CD28 antibody (Biological Example 2). Format: cell-based, human. The settings on record: Homo sapiens, T-cell, read-out: IL-2 secretion Anti-CD3/Anti-CD28 stimulation; for fold induction at 0.3 µM: 0.3 μM Cbl-b inhibitor; for fold induction at 1 µM: 1 μM Cbl-b inhibitor; for fold induction at 4 µM: 4 μM Cbl-b inhibitor. From the text: (§1) Methods for experimentally determining increased T-cell activation, increased T-cell proliferation, decreased T-cell exhaustion, and/or decreased T-cell tolerance are well known in the art.
(§2) Modulation of activity of an immune cell, such as a T-cell, a B cell or a NK cell can be measured by determining a baseline value for a parameter of interest (e.g., cytokine secretion). […] A reference value then is obtained for T-cell activation after contacting or administering said Cbl-b inhibitor. The reference value is compared to the baseline value in order to determine the amount of T-cell activation due to contact or administration of the Cbl-b inhibitor or composition thereof. […] Immune cell activation can be assessed by measuring biological markers of activation such as increased cytokine secretion, increased cell surface expression of activation markers (e.g., cell surface markers), or increased phosphorylation of proteins in a downstream signaling pathway. The fold over baseline value that indicates immune cell activation can be determined for the parameter being tested and the conditions under which the immune cell were treated. For example, for measuring T-cell activation, a baseline value can be obtained from T-cells stimulated with anti-CD3 antibody in combination with anti-CD28 antibody, wherein the cells are not incubated with a Cbl-b inhibitor. […] A positive response for immune cell activation can then be determined by the obtained reference value. […]

The test system of test [3] is T-cell. In words: IL-2 secretion from T-cells stimulated with anti-CD3 antibody alone (Biological Example 2). The settings on record: T-cell, read-out: IL-2 secretion Anti-CD3 stimulation; for fold induction at 1 µM: 1 μM Cbl-b inhibitor; for fold induction at 8 µM: 8 μM Cbl-b inhibitor. In kind it is cell-based, human.
Text: as §1
(§3) Modulation of activity of an immune cell, such as a T-cell, a B cell or a NK cell can be measured by determining a baseline value for a parameter of interest (e.g., cytokine secretion). […] A reference value then is obtained for T-cell activation after contacting or administering said Cbl-b inhibitor. The reference value is compared to the baseline value in order to determine the amount of T-cell activation due to contact or administration of the Cbl-b inhibitor or composition thereof. […] Immune cell activation can be assessed by measuring biological markers of activation such as increased cytokine secretion, increased cell surface expression of activation markers (e.g., cell surface markers), or increased phosphorylation of proteins in a downstream signaling pathway. The fold over baseline value that indicates immune cell activation can be determined for the parameter being tested and the conditions under which the immune cell were treated. For example, for measuring T-cell activation, a baseline value can be obtained from T-cells stimulated with anti-CD3 antibody in combination with anti-CD28 antibody, wherein the cells are not incubated with a Cbl-b inhibitor. […] A positive response for immune cell activation can then be determined by the obtained reference value.
(§4) In some embodiments, a baseline value can be obtained from T-cells stimulated with anti-CD3 antibody alone, wherein the cells are not incubated with a Cbl-b inhibitor. In some embodiments, a positive response for T-cell activation as measured by cytokine secretion (e.g., IL-2 secretion) by T-cells stimulated with anti-CD3 antibody alone in the presence of a Cbl-b inhibitor is at least 0.1-fold over the baseline value for cytokine secretion (e.g., IL-2 secretion) obtained from T-cells stimulated with anti-CD3 antibody alone in the absence of a Cbl-b inhibitor. In some embodiments, a positive response for T-cell activation as measured by surface marker expression (e.g., CD25 surface marker staining) by T-cells stimulated with anti-CD3 antibody alone in the presence of a Cbl-b inhibitor is at least 0.6-fold over the baseline value for surface marker expression (e.g., CD25 surface marker staining) obtained from T-cells stimulated with anti-CD3 antibody alone in the absence of a Cbl-b inhibitor.

Test [4] relates to T-cell. In words: CD25 cell surface staining on T-cells co-stimulated with anti-CD3 and anti-CD28 antibody (Biological Example 2). Format: cell-based, human. The conditions noted are these: Homo sapiens, T-cell, read-out: CD25 staining Anti-CD3/Anti-CD28 stimulation; for fold induction at 0.3 µM: 0.3 μM Cbl-b inhibitor; for fold induction at 1 µM: 1 μM Cbl-b inhibitor; for fold induction at 4 µM: 4 μM Cbl-b inhibitor.
Text: as §1, §2

In test [5] the test system is T-cell. The experiment in a line: CD25 cell surface staining on T-cells stimulated with anti-CD3 antibody alone (Biological Example 2). Format: cell-based, human. The conditions noted are these: T-cell, read-out: CD25 staining Anti-CD3 stimulation; for fold induction at 1 µM: 1 μM Cbl-b inhibitor; for fold induction at 8 µM: 8 μM Cbl-b inhibitor.
Text: as §1, §3, §4

The target in test [6] is T1, Cbl-b. In words: Cbl-b activity assay (Cbl-b inhibition assay), TR-FRET of Cbl-b interaction with UbcH5B-Ub. In kind it is biochemical. The settings on record: assay buffer with 100 mM NaCl, 60 nM Src kinase; read-out: Cbl-b activity IC50. A digest of the protocol: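 Compound-treated Cbl-b was incubated 1.5 h with Src kinase (60 nM final; 30 nM for asterisked values, which also used 50 mM instead of 100 mM NaCl), 1 mM ATP and 5 mM MgCl2. Binding to fluorescent Ub-loaded UbcH5B (C85K mutant) was then read by TR-FRET after 1 h more.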
(In general: TR-FRET usually uses a lanthanide donor and a delayed reading to cut background.)

The mark [7] stands for this setting: fold change over baseline, primary human total T-cells.
The mark [8] stands for this setting: fold change over baseline (anti-CD3/anti-CD28 stimulated T-cells without inhibitor).
Setting [9] is: Homo sapiens, fold change over baseline (anti-CD3/anti-CD28 stimulated T-cells without inhibitor).

T1 sequence (Q13191 36-427): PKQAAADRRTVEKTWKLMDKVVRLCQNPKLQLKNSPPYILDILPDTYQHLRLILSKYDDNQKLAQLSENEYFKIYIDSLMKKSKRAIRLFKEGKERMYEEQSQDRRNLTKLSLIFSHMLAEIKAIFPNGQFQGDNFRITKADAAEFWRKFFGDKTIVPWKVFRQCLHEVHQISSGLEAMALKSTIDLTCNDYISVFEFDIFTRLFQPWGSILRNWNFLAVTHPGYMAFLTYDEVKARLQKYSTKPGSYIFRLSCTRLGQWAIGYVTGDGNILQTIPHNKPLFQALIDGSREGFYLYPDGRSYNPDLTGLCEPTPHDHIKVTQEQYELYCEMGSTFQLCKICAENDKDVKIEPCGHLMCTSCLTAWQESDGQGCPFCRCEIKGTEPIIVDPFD

Consider `Cn1cnnc1[C@H]1CC[C@H]1c1cccc(N2Cc3c(cccc3C(F)(F)F)C2=O)c1` (racemic) [Compound 283, cis-2-(3-(2-(4-Methyl-4H-1,2,4-triazol-3-yl)cyclobutyl)phenyl)-4-(trifluoromethyl)isoindolin-1-one], for which the concentration for half-maximal inhibition (IC50) on Cbl-b [1] was at most 1000 nM; on Cbl-b [6] it was 301 to 1000 nM. The fold induction at 0.3 µM in the test on T-cell [2] (setting [7]) and in the test on T-cell [4] (setting [7]) was below 1 in each case. Also, the fold induction at 1 µM in the test with T-cell [2] (setting [7]) is 1.01 to 2.5; in the test on T-cell [3] (setting [7]), below 0.05; in the test with T-cell [4] (setting [7]), below 1; with T-cell [5] (setting [7]), below 0.6. The results for the fold induction at 4 µM in the test on T-cell [2] (setting [7]) and in the test with T-cell [4] (setting [7]) were 1.01 to 2.5 and 1.01 to 1.3, respectively. The fold induction at 8 µM was 0.101 to 0.15 in the test with T-cell [3] (setting [7]) and below 0.6 with T-cell [5] (setting [7]).
Regarding `C[C@@H](c1cccc(N2Cc3c(cccc3C(F)(F)F)C2=O)c1)[C@@H](O)c1nncn1C` (racemic) [Compound 292, cis-2-(3-(1-Hydroxy-1-(4-methyl-4H-1,2,4-triazol-3-yl)propan-2-yl)phenyl)-4-(trifluoromethyl)isoindolin-1-one], the IC50 at Cbl-b [1] is at most 10000 nM; on Cbl-b [6], 1000 to 3000 nM. Besides, the fold induction at 0.3 µM in the test on T-cell [2] (setting [7]) was in the range of 2.51 to 5; in the test with T-cell [4] (setting [7]), 1.01 to 1.3. The fold induction at 1 µM in the test on T-cell [2] (setting [7]) is 1.01 to 2.5; with T-cell [3] (setting [7]) it was below 0.05; in the test with T-cell [4] (setting [7]) it was below 1; with T-cell [5] (setting [7]), below 0.6. The fold induction at 4 µM in the test on T-cell [2] (setting [7]) was 1.01 to 2.5; in the test on T-cell [4] (setting [7]) it was 1.01 to 1.3. Besides, the fold induction at 8 µM was below 0.05 in the test with T-cell [3] (setting [7]) and below 0.6 with T-cell [5] (setting [7]).
Turning to `C[C@@H](c1cccc(N2Cc3c(cccc3C(F)(F)F)C2=O)c1)[C@H](F)c1nncn1C` (relative stereo) [Compound 293, trans-2-(3-(1-fluoro-1-(4-methyl-4H-1,2,4-triazol-3-yl)propan-2-yl)phenyl)-4-(trifluoromethyl)isoindolin-1-one], the IC50 on Cbl-b [1] was at most 500 nM; at Cbl-b [6], 100 to 300 nM. The fold induction at 0.3 µM in the test on T-cell [2] (setting [7]) is 2.51 to 5; with T-cell [4] (setting [7]), 1.01 to 1.3. In addition, the fold induction at 1 µM in the test on T-cell [2] (setting [7]) lay in the range of 2.51 to 5; in the test with T-cell [3] (setting [7]), 0.101 to 0.15; with T-cell [4] (setting [7]), 1.01 to 1.3; with T-cell [5] (setting [7]), 0.601 to 0.8. Besides, the figures for the fold induction at 4 µM in the test on T-cell [2] (setting [7]) and in the test with T-cell [4] (setting [7]) were 2.51 to 5 and 1.01 to 1.3, respectively. In addition, the fold induction at 8 µM is above 0.201 in the test on T-cell [3] (setting [7]) and 0.801 to 1 in the test on T-cell [5] (setting [7]).
Consider `CO[C@@H]1CCN(Cc2cc3c(c(C(F)(F)F)c2)CN(c2cccc(C4(Cc5nncn5C)COC4)c2)C3=O)C[C@@H]1F` (relative stereo) [Example 621, 6-(((cis)-3-fluoro-4-methoxypiperidin-1-yl)methyl)-2-(3-(3-((4-methyl-4H-1,2,4-triazol-3-yl)methyl)oxetan-3-yl)phenyl)-4-(trifluoromethyl)isoindolin-1-one], for which the IC50 at Cbl-b [1] was at most 100 nM; at Cbl-b [6], below 100 nM. For the same compound, the results for the fold induction at 0.3 µM with T-cell [2] (setting [8]) and in the test on T-cell [4] (setting [8]) were above 7.5 and 1.31 to 1.5, respectively. Moreover, the fold induction at 1 µM with T-cell [2] (setting [8]) is above 7.5; with T-cell [3] (setting [9]), above 0.201; with T-cell [4] (setting [8]), 1.31 to 1.5; in the test with T-cell [5] (setting [9]), above 1.
Turning to `C[C@@H]1CCN(Cc2cc3c(c(C(F)(F)F)c2)CN(c2cccc(C4(Cc5nncn5C)COC4)c2)C3=O)C[C@H]1F` (relative stereo) [Example 631, 6-((trans-3-fluoro-4-methylpiperidin-1-yl)methyl)-2-(3-(3-((4-methyl-4H-1,2,4-triazol-3-yl)methyl)oxetan-3-yl)phenyl)-4-(trifluoromethyl)isoindolin-1-one], the IC50 at Cbl-b [1] is at most 100 nM; at Cbl-b [6], below 100 nM. For the same compound, the fold induction at 0.3 µM was above 7.5 in the test with T-cell [2] (setting [8]) and 1.31 to 1.5 with T-cell [4] (setting [8]). For the same compound, the fold induction at 1 µM was above 7.5 with T-cell [2] (setting [8]), above 0.201 in the test with T-cell [3] (setting [9]), 1.51 to 1.75 in the test on T-cell [4] (setting [8]) and above 1 in the test on T-cell [5] (setting [9]).
`Cc1c[nH]nc1C[C@H](C)c1cccc(N2Cc3c(cccc3C(F)(F)F)C2=O)c1` (single isomer, unassigned) [Compound 270a]: the IC50 was at most 1000 nM at Cbl-b [1] and 301 to 1000 nM at Cbl-b [6]. In addition, the values for the fold induction at 0.3 µM in the test on T-cell [2] (setting [7]) and in the test on T-cell [4] (setting [7]) were 1.01 to 2.5 and 1.01 to 1.3, respectively. The fold induction at 1 µM lay in the range of 1.01 to 2.5 with T-cell [2] (setting [7]), 0.101 to 0.15 in the test on T-cell [3] (setting [7]), 1.01 to 1.3 with T-cell [4] (setting [7]) and 0.601 to 0.8 with T-cell [5] (setting [7]). The fold induction at 4 µM in the test on T-cell [2] (setting [7]) fell in the range of 1.01 to 2.5; with T-cell [4] (setting [7]) it was 1.01 to 1.3. Besides, the values for the fold induction at 8 µM in the test on T-cell [3] (setting [7]) and with T-cell [5] (setting [7]) were 0.151 to 0.2 and 0.801 to 1, respectively.
For the compound `C[C@H](Sc1nncn1C)c1cccc(NC(=O)c2ccc3ccccc3n2)c1` [Compound 9a], the IC50 at Cbl-b [1] is at most 500 nM. In the test on T-cell [2] (setting [7]), the fold induction at 0.3 µM is 1.01 to 2.5, the fold induction at 1 µM was 1.01 to 2.5 and the fold induction at 4 µM lay within 1.01 to 2.5. Further, in the test on T-cell [3] (setting [7]), the fold induction at 1 µM was below 0.05 and the fold induction at 8 µM lay within 0.051 to 0.1. In the test on T-cell [4] (setting [7]), the fold induction at 0.3 µM lay in the range of 1.01 to 1.3, the fold induction at 1 µM lay in the range of 1.01 to 1.3 and the fold induction at 4 µM was 1.01 to 1.3. Further, in the test on T-cell [5] (setting [7]), the fold induction at 1 µM fell in the range of 0.601 to 0.8 and the fold induction at 8 µM lay within 0.601 to 0.8.

One may read the IC50 as the concentration that gives 50% inhibition.
